From publication PMC3539664, “Convergent synthesis and evaluation of ^18F-labeled azulenic COX2 probes for cancer imaging” (Frontiers in Oncology, 2013)
Entries after “also recorded” stand apart in the source; their conditions may differ.

Assays:
[1] = tested on: C57MG tumors; assay: In vivo microPET/CT imaging of COX2 in tumor-bearing mouse model; design: species or system mice
Protocol: The experimental protocol for animal imaging was approved by the Vanderbilt Medical Center Institutional Animal Care and Use Committee. Nude mice 6–8 weeks of age (n = 8, from Jackson Laboratory, Bar Harbor, ME, USA) were implanted subcutaneously under anesthesia (isoflurane mixed […]) with 1.0 × 10^6 C57MG cells in the mammary fat pad. The progress of tumor growth was monitored via every-other-day measurement of tumor size and animal weight. When the tumors reached approximately 4 mm in diameter, in vivo PET imaging was performed.
Positron emission tomography imaging was performed using the microPET Focus 220 (Siemens Pre-clinical, Knoxville, TN, USA) in a static acquisition mode for 30 min at 60, 120, and 150 min after injection of ^18F-COX2 probe 13 (150–200 μCi, 100–130 μL) into awake, non-fasted mice (n = 8) via the tail vein. To obtain whole-body scans, mice were placed in a supine position. The data were acquired in a 3-D mode with an axial span of approximately 8 cm. During the scanning, the animals were anesthetized using isoflurane and the temperature inside the scanner was maintained at 30°C using a pad connected to a circulating warm water bath. After PET imaging, a CT image was acquired using the microCAT II (Siemens Pre-clinical, Knoxville, TN, USA) using the same animal holder with the subjects maintained under anesthesia throughout, and then the mice were immediately euthanized upon completion of the CT scan. PET images were reconstructed using the iterative MAP reconstruction algorithm with 18 iterations and a beta smoothing value of 0.001 into 128 × 128 × 95 slices with a voxel size of 0.475 mm × 0.475 mm × 0.796 mm. The PET and CT images were co-registered using the imaging tool AMIDE ([Loening and Gambhir, 2003]).

[2] = Biodistribution by gamma counting of tissues after imaging; type: in vivo; conditions: non-fasted tumor-bearing mice (n = 3), 150 min post injection (Figure 5)
From the text: After the imaging session, the mice were euthanized and hearts, muscles, blood, livers, spleens, kidneys, stomachs, brains, intestines, tumors, and lungs were retrieved. The tissues were weighed and assessed for ^18F radioactivity using a gamma counter (CRC-15W, Capintec, Ramsey, NJ, USA).

Hepatic uptake of the probe (PET) ([1]; non-fasted C57MG tumor-bearing mice, i.v., PET imaging): predominant hepatic uptake
Tumor accumulation and retention of the probe (PET, PET/CT) ([1]; non-fasted nude mice with C57MG mammary fat pad tumors, i.v. tail vein, static whole-body scan 150 min after administration, vs background p < 0.05): significant accumulation in the tumor
SMILES: Cc1csc(Cc2c3cccccc-3c(C(=O)c3ccc([18F])cc3)c2C)n1 [compound 13]
Bone signal / in vivo defluorination (PET) ([1]; non-fasted C57MG tumor-bearing mice, i.v., up to 2.5 h post injection): negligible signal in the bone; also recorded: no defluorination of the probe in vivo
Biodistribution: tissue uptake (% injection dose/g tissue) [2]: the probe accumulated in the tumor; also recorded: highest uptake was detected in the liver, followed by the intestine
